# Assay results reported in patent US12404283B2, “c-MYC mRNA translation modulators and uses thereof in the treatment of cancer” (Anima Biotech Inc., priority 2022, dated 2025).
# System: c-Myc
# Test: c-Myc immunofluorescence assay
# Type: cell-based, human
# Settings: A549 cells, 24 hours treatment, anti-c-Myc immunofluorescence
# Procedure, shortened: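 High-content imaging (20×) of PFA-fixed A549 cells immunostained for c-Myc with DAPI nuclei, after 24 h compound treatment at increasing concentrations. Per-cell c-Myc signal in identified cell regions was plotted against dose and fitted by logistic regression to give EC50.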
row,SMILES,Myc Efficacy (−LogEC50)
1,"CNC(=O)c1ccc(-c2cn3c(n2)sc2cc(C(=O)NCC4CCN(C)C4)ccc23)cc1 (centres unmarked) [compound 176, 2-(4-(methylcarbamoyl)phenyl)-N-((1-methylpyrrolidin-3-yl)methyl)benzo[d]imidazo [2,1-b]thiazole-7-carboxamide]",− (− ≤3)
2,"CCN(CCCNC(=O)c1ccc2c(c1)sc1nc(-c3cccc(C)c3)cn12)CC(F)(F)F [compound 177, N-(3-(ethyl(2,2,2-trifluoroethyl)amino)propyl)-2-(m-tolyl)benzo[d]imidazo[2,1-b]thiazole-7-carboxamide]",+ (+ >3 and <5)
3,"Cc1cccc(-c2cn3c(n2)sc2cc(C(=O)NCCCNCC(F)(F)F)ccc23)c1 [compound 178, 2-(m-tolyl)-N-(3-((2,2,2-trifluoroethyl)amino)propyl) benzo[d]imidazo[2,1-b]thiazole-7-carboxamide]",+ (+ >3 and <5)
4,"CCN(CC)CCCNC(=O)c1ccc2c(c1)sc1nc(-c3ccc(N4CCCC4=O)cc3)cn12 [compound 179, N-(3-(diethylamino)propyl)-2-(4-(2-oxopyrrolidin-1-yl)phenyl)benzo[d]imidazo [2,1-b]thiazole-7-carboxamide]",+ (+ >3 and <5)
5,"CCN(CC)CCCN(C)C(=O)c1ccc2c(c1)sc1nc(-c3ccc(C(=O)NC)cc3)cn12 [compound 180, N-(3-(diethylamino)propyl)-N-methyl-2-(4-(methylcarbamoyl)phenyl) benzo[d]imidazo[2,1-b]thiazole-7-carboxamide]",+ (+ >3 and <5)
6,"CCN(CC)CCCN(C)C(=O)c1ccc2c(c1)sc1nc(-c3cccc(C)c3)cn12 [compound 181, N-(3-(diethylamino)propyl)-N-methyl-2-(m-tolyl)benzo[d]imidazo[2,1-b]thiazole-7-carboxamide]",++ (++ ≥5 and <6)
7,"CNC(=O)c1ccc(-c2cn3c(n2)sc2cc(C(=O)NC[C@H]4COCCO4)ccc23)cc1 [compound 182, (S)-N-((1,4-dioxan-2-yl)methyl)-2-(4-(methylcarbamoyl)phenyl) benzo[d]imidazo[2,1-b]thiazole-7-carboxamide]",− (− ≤3)
8,"CNC(=O)c1ccc(-c2cn3c(n2)sc2cc(C(=O)NCCN4CC5(COC5)C4)ccc23)cc1 [compound 183, N-(2-(2-oxa-6-azaspiro[3.3]heptan-6-yl)ethyl)-2-(4-(methylcarbamoyl)phenyl) benzo[d]imidazo[2,1-b]thiazole-7-carboxamide]",+ (+ >3 and <5)
9,"CNC(=O)c1ccc(-c2cn3c(n2)sc2cc(C(=O)NCCN4CCN(C)CC4)ccc23)cc1 [compound 184, 2-(4-(methylcarbamoyl)phenyl)-N-(2-(4-methylpiperazin-1-yl)ethyl)benzo[d]imidazo [2,1-b]thiazole-7-carboxamide]",+ (+ >3 and <5)
10,"CNC(=O)c1ccc(-c2cn3c(n2)sc2cc(C(=O)NC4CCNCC4)ccc23)cc1 [compound 185, 2-(4-(methylcarbamoyl)phenyl)-N-(piperidin-4-yl)benzo[d]imidazo[2,1-b]thiazole-7-carboxamide]",++ (++ ≥5 and <6)
11,"CNC(=O)c1ccc(-c2cn3c(n2)sc2cc(C(=O)N[C@@H](C)COC)ccc23)cc1 [compound 186, (S)-N-(1-methoxypropan-2-(methylcarbamoyl)phenyl) benzo[d]imidazo[2,1-b]thiazole-7-carboxamide]",+ (+ >3 and <5)
12,"CNC(=O)c1ccc(-c2cn3c(n2)sc2cc(C(=O)NC(C)CCO)ccc23)cc1 (centres unmarked) [compound 187, N-(4-hydroxybutan-2-yl)-2-(4-(methylcarbamoyl)phenyl) benzo[d]imidazo[2,1-b]thiazole-7-carboxamide]",− (− ≤3)
13,"CC[C@@H](CO)NC(=O)c1ccc2c(c1)sc1nc(-c3ccc(C(=O)NC)cc3)cn12 [compound 188, (S)-N-(1-hydroxybutan-2-yl)-2-(4-(methylcarbamoyl)phenyl) benzo[d]imidazo[2,1-b]thiazole-7-carboxamide]",+ (+ >3 and <5)
14,"CNC(=O)c1ccc(-c2cn3c(n2)sc2cc(C(=O)NCCCOC)ccc23)cc1 [compound 189, N-(3-methoxypropyl)-2-(4-(methylcarbamoyl)phenyl) benzo[d]imidazo[2,1-b]thiazole-7-carboxamide]",− (− ≤3)
15,"CNC(=O)c1ccc(-c2cn3c(n2)sc2cc(C(=O)NC4CCN(C(=O)C5CC5)CC4)ccc23)cc1 [compound 190, N-(1-(cyclopropanecarbonyl)piperidin-4-yl)-2-(4-(methylcarbamoyl)phenyl) benzo[d]imidazo[2,1-b]thiazole-7-carboxamide]",+ (+ >3 and <5)
16,"CNC(=O)c1ccc(-c2cn3c(n2)sc2cc(C(=O)NCCC(=O)N4CCCCC4)ccc23)cc1 [compound 191, 2-(4-(methylcarbamoyl)phenyl)-N-(3-oxo-3-(piperidin-1-yl)propyl)benzo[d]imidazo [2,1-b]thiazole-7-carboxamide]",+ (+ >3 and <5)

row,SMILES,Myc Efficacy (−LogEC50)
1,"CNC(=O)c1ccc(-c2cn3c(n2)sc2cc(C(=O)N[C@@H](CO)CC(C)C)ccc23)cc1 [compound 192, (R)-N-(1-hydroxy-4-methylpentan-2-yl)-2-(4-(methylcarbamoyl)phenyl) benzo[d]imidazo[2,1-b]thiazole-7-carboxamide]",− (− ≤3)
2,"CCN(CCCN(C)C(=O)c1ccc2c(c1)sc1nc(-c3cccc(C)c3)cn12)CC(F)(F)F [compound 193, N-(3-(ethyl(2,2,2-trifluoroethyl)amino)propyl) N-methyl-2-(m-tolyl)benzo[d]imidazo[2,1-b]thiazole-7-carboxamide]",+ (+ >3 and <5)
3,"CCN(CC)CCCNC(=O)c1ccc2c(c1)sc1nc(-c3cc(C)ccn3)cn12 [compound 194, N-(3-(diethylamino)propyl)-2-(4-methylpyridin-2-yl)benzo[d]imidazo[2,1-b]thiazole-7-carboxamide]",+ (+ >3 and <5)
4,"CNC(=O)c1ccc(-c2cn3c(n2)sc2cc(C(=O)NCC4(O)COC4)ccc23)cc1 [compound 195, N-((3-hydroxyoxetan-3-yl)methyl)-2-(4-(methylcarbamoyl)phenyl) benzo[d]imidazo[2,1-b]thiazole-7-carboxamide]",− (− ≤3)
5,"CNC(=O)c1ccc(-c2cn3c(n2)sc2cc(C(=O)NC[C@H]4CCNC[C@@H]4O)ccc23)cc1 [compound 196, N-(((3R,4R)-3-hydroxypiperidin-4-yl)methyl)-2-(4-(methylcarbamoyl)phenyl) benzo[d]imidazo[2,1-b]thiazole-7-carboxamide]",+ (+ >3 and <5)
6,"CNC(=O)c1ccc(-c2cn3c(n2)sc2cc(C(=O)NC(C)C(=O)N(C)C)ccc23)cc1 (centres unmarked) [compound 197, N-(1-(dimethylamino)-1-oxopropan-2-yl)-2-(4-(methylcarbamoyl)phenyl) benzo[d]imidazo[2,1-b]thiazole-7-carboxamide]",+ (+ >3 and <5)
7,"CNC(=O)c1ccc(-c2cn3c(n2)sc2cc(C(=O)NC4CN(C)C4)ccc23)cc1 [compound 198, N-(1-methylazetidin-3-yl)-2-(4-(methylcarbamoyl)phenyl) benzo[d]imidazo[2,1-b]thiazole-7-carboxamide]",+ (+ >3 and <5)
8,"CNC(=O)c1ccc(-c2cn3c(n2)sc2cc(C(=O)NC4(CN)CCC4)ccc23)cc1 [compound 199, N-(1-(aminomethyl)cyclobutyl)-2-(4-(methylcarbamoyl)phenyl) benzo[d]imidazo[2,1-b]thiazole-7-carboxamide]",+ (+ >3 and <5)
9,"CNC(=O)c1ccc(-c2cn3c(n2)sc2cc(C(=O)NCC[C@H](C)N)ccc23)cc1 [compound 200, (S)-N-(3-aminobutyl)-2-(4-(methylcarbamoyl)phenyl) benzo[d]imidazo[2,1-b]thiazole-7-carboxamide]",+ (+ >3 and <5)
10,"CNC(=O)c1ccc(-c2cn3c(n2)sc2cc(C(=O)NCCOC)ccc23)cc1 [compound 201, N-(2-methoxyethyl)-2-(4-(methylcarbamoyl)phenyl) benzo[d]imidazo[2,1-b]thiazole-7-carboxamide]",+ (+ >3 and <5)
11,"CNC(=O)c1ccc(-c2cn3c(n2)sc2cc(C(=O)NCCc4cnn(C)c4)ccc23)cc1 [compound 202, N-(2-(1-methyl-1H-pyrazol-4-yl)ethyl)-2-(4-(methylcarbamoyl)phenyl) benzo[d]imidazo[2,1-b]thiazole-7-carboxamide]",− (− ≤3)
12,"CNC(=O)c1ccc(-c2cn3c(n2)sc2cc(C(=O)NCC(C)OC)ccc23)cc1 (centres unmarked) [compound 203, N-(2-methoxypropyl)-2-(4-(methylcarbamoyl)phenyl) benzo[d]imidazo[2,1-b]thiazole-7-carboxamide]",+ (+ >3 and <5)
13,"CNC(=O)c1ccc(-c2cn3c(n2)sc2cc(C(=O)NCC4CCCO4)ccc23)cc1 (centres unmarked) [compound 204, 2-(4-(methylcarbamoyl)phenyl)-N-((tetrahydrofuran-2-yl)methyl)benzo[d]imidazo [2,1-b]thiazole-7-carboxamide]",+ (+ >3 and <5)
14,"CNC(=O)c1ccc(-c2cn3c(n2)sc2cc(C(=O)NC4CCCCC4N)ccc23)cc1 (centres unmarked) [compound 205, N-(2-aminocyclohexyl)-2-(4-(methylcarbamoyl)phenyl) benzo[d]imidazo[2,1-b]thiazole-7-carboxamide]",+ (+ >3 and <5)
15,"CNC(=O)c1ccc(-c2cn3c(n2)sc2cc(C(=O)NC4(C(F)(F)F)COC4)ccc23)cc1 [compound 206, 2-(4-(methylcarbamoyl)phenyl)-N-(3-(trifluoromethyl)oxetan-3-yl)benzo[d]imidazo[2,1-b]thiazole-7-carboxamide]",− (− ≤3)
16,"CNC(=O)c1ccc(-c2cn3c(n2)sc2cc(C(=O)N[C@H]4CCCN(C)C4)ccc23)cc1 [compound 207, (S)-2-(4-(methylcarbamoyl)phenyl)-N-(1-methylpiperidin-3-yl)benzo[d]imidazo[2,1-b]thiazole-7-carboxamide]",++ (++ ≥5 and <6)
